From patent EP4741383A1, “COMPOUND AND USE THEREOF AS ANTI-CANCER DRUG” (Tyligand Bioscience (Shanghai) Limited, priority 2023, dated 2025) come the findings set out here.

In data set [1] the target is T1, CYP2D6 (Homo sapiens, UniProt P10635).
T1 construct: tissue Corning or Xenotech; host or cells: human liver microsomes
Briefly: CYP450 inhibition in human liver microsomes, CYP2D6. Type of data set: in vitro ADME. Conditions: pH 7.4, read-out: % CYP inhibition @ 10 µM 2D6. The source says: (§1) According to standard methods in the field for the study of cytochrome P450 enzyme systems, such as the method described in Kerns, Edward H. and Di Li et al., Drug-like Properties: Concepts, Structure Design and Methods: from ADME to Toxicity Optimization (2008), San Diego, Academic Press, and Lin, Tong et al., In Vitro Assessment of Cytochrome P450 Inhibition: Strategies for Increasing LC/MS-Based Assay Throughput Using a One-Point IC50 Method and Multiplexing High-Performance Liquid Chromatography (J. Pharm. Sci. 2007, 96 (9), 2485). The inhibitory effect of the disclosed compounds on the cytochrome P450 enzyme system was similarly examined below.
(§2) Human liver microsomes were purchased from Corning or Xenotech. The test compounds were evaluated by detecting the metabolism of substrates for different Cyp450 isoforms by human liver microsomes.
(§3) 0.1 M potassium phosphate buffer (K-buffer, pH 7.4) was pre-warmed.
(§4) 100 mM K-buffer was prepared by mixing 9.5 mL of stock solution A (1 M potassium dihydrogen phosphate, prepared by dissolving 136.5 g of potassium dihydrogen phosphate in 1 L of Milli-Q water) with 40.5 mL of stock solution B (1 M potassium hydrogen phosphate, prepared by dissolving 174.2 g of potassium hydrogen phosphate in 1 L of Milli-Q water). The total volume was adjusted to 500 mL with Milli-Q water, and the buffer was titrated to pH 7.4 using KOH or H3PO4.
(§5) Test compound solution and specific inhibitor solution (400× dilution) were prepared in a 96-well plate. For the test compound, 8 µL of 10 mM test compound was transferred into 12 µL of ACN. For specific inhibitors of CYP1A2, CYP2C9, and CYP2D6: 12 µL of 1 mM α-naphthoflavone, 10 µL of 40 mM sulfaphenazole, 10 µL of 10 mM quinidine, and 8 µL of DMSO were mixed. For specific inhibitors of CYP3A4, CYP2B6, CYP2C8, and CYP2C19: 8 µL of DMSO stock solution was added to 12 µL of ACN.
(§6) A 4× diluted NADPH solution was prepared by dissolving 66.7 mg of NADPH in 10 mL of 0.1 M K-buffer (pH 7.4). […]

Data set [2] concerns the target T2, CYP2B6 (Homo sapiens, UniProt P20813).
T2 construct: tissue Corning or Xenotech; host or cells: human liver microsomes
T2 sequence (P20813 1-491): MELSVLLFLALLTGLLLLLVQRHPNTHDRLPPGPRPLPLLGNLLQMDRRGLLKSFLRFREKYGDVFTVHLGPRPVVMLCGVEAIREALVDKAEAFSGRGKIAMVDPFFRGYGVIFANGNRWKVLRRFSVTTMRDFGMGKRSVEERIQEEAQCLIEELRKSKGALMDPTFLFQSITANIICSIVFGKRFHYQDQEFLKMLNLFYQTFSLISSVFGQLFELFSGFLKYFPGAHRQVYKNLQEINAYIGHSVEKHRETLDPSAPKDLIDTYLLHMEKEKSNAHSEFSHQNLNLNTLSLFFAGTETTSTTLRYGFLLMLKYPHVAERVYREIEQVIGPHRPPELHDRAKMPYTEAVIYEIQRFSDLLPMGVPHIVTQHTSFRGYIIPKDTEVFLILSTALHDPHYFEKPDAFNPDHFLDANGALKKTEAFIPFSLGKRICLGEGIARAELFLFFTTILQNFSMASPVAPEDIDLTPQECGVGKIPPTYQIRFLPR
The data set can be described thus: CYP450 inhibition in human liver microsomes, CYP2B6. Type of data set: in vitro ADME. Conditions: pH 7.4, read-out: % CYP inhibition @ 10 µM 2B6.
Text: as §1, §2, §3, §4, §5, §6
On the technique in general: Liver microsomes are vesicles of endoplasmic reticulum, rich in cytochrome P450 enzymes.

T1 sequence (P10635 whole entry): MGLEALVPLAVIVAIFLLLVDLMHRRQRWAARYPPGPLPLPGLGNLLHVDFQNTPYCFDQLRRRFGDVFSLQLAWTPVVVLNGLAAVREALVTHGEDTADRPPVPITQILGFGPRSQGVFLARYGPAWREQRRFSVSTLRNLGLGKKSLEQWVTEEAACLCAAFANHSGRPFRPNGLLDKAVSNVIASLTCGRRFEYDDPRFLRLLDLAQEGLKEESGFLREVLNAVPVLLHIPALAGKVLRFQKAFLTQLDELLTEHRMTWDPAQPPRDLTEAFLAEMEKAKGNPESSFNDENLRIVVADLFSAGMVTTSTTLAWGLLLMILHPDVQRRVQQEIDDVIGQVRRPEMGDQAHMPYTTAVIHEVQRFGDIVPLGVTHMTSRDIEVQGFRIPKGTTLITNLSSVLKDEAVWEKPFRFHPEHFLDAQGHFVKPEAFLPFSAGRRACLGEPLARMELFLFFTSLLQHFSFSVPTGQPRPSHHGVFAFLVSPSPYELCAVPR

A word on the inhibition: it is the relative decrease from the control value, in per cent. `CC1(n2c(-c3ccc(NC(=O)C(=O)Nc4ccc(N5CCC6(CCOC6)CC5)cc4)cc3)cc3cc(F)c(-c4nnn[nH]4)cc32)CCC1` [Example 68]: the inhibition at 10 min, 10 µM in data set [1] was -4.07%; in data set [2], 7.06%.

For the compound `O=C(Nc1ccc(-c2cc3cc(F)c(-c4nnn[nH]4)cc3n2C2CCC2)cc1)C(=O)Nc1ccc(N2CCC(CO)CC2)cc1` [Example 23], the inhibition at 10 min, 10 µM is -5.43% in data set [1] and 1.32% in data set [2].

For the compound `O=C(Nc1ccc(-c2cc3cc(F)c(-c4nnn[nH]4)cc3n2C2CCC2)cc1)C(=O)Nc1ccc(N2CCC3(CCOC3)CC2)cc1` [Example 67], the inhibition at 10 min, 10 µM is -12.6% in data set [1] and 15.3% in data set [2].
